Source: patent US11484258B2, “Free radical consumption speed information acquisition method and NASH determination method” (KYUSHU UNIVERSITY, NATIONAL UNIVERSITY CORPORATION, priority 2016, dated 2022)
Where two headings read alike, the source gives them in different places.

Tests used:
liver = experiment: in vivo DNP-MRI of the liver after intravenous CmP: redox metabolic rate (free radical consumption speed); design: species or system mouse
Excerpt: C57BL6 mice (female, 5 weeks old) were purchased from Charles River Laboratories Japan, Inc. (Yokohama, Japan), and were acclimated for 1 week before starting the experiment. Five mice were housed per cage and were fed with a methionine-choline deficient diet or a normal diet in a room where the temperature and the circadian rhythm were controlled. Each of a methionine-choline deficient diet group (NASH model mouse group) and a normal diet group (normal mouse group) was divided into 5 groups to be subjected to DNP-MRI measurement at 1, 2, 4, 6 and 8 weeks, and blood collection, autopsy and liver tissue collection were performed to evaluate the pathological conditions.
A mouse (NASH model mouse) was anesthetized with isoflurane (4% for introduction, 2% for maintenance) and was fixed, with a pressure-sensitive tape for skin, on a local detector for liver measurement (a surface coil) and a holder with the stomach side faced downward. The body temperature of the mouse was 37±1° C. during the experiment. The mouse was transferred to a DNP-MRI resonance apparatus and the apparatus was set such that the whole liver was a measurement target, and then, CmP (Carbamoyl-PROXYL, redox contrast agent) was intravenously injected into the NASH mode mouse, and the DRI-MRI measurement was started.
TR: 1200 ms; TE: 25 ms; TEPR: 600 ms; number of phase-encoding gradient steps: 64; […]; FOV: 48 mm×48 mm; matrix size: 64×64 (in-plane resolution: 0.75 mm); slice thickness: 30 mm; number of average: 1; and scanning time: 79 s. OMRI data was analyzed by using Image J Software Package (http://rsb.info.nih.gov/ij/).
Besides, the mouse group fed with the normal diet (the normal mouse group) was similarly subjected as a control to the DRI-MRI evaluation.
With respect to the NASH model mouse group, the DNP-MRI measurement was performed 1 week (MCD1), 2 weeks (MCD2), 4 weeks (MCD4), 6 weeks (MCD6) and 8 weeks (MCD8) after feeding the methionine-choline deficient diet (MCD) was started, and the redox metabolic rate of the CmP radical in the liver was calculated.
Also with respect to the normal mouse group, the DNP-MRI measurement was similarly performed 1 week (ND1), 2 weeks (ND2), 4 weeks (ND4), 6 weeks (ND6) and 8 weeks (ND8) after feeding the normal diet was started, and the redox metabolic rate of the CmP radical in the liver was calculated.

[1] = test system: homogenate solution of the liver
[2] = test system: homogenate solution of the liver; experiment: redox metabolism of CmP by liver homogenate solution, cytoplasmic and blood components (FIG. 7); details: KCN (mitochondrial electron transport chain inhibitor) added

## CC1(C)CC(C(N)=O)C(C)(C)N1[O] (stereo not shown) [CmP, Carbamoyl-PROXYL]
liver; NASH model mouse compared with normal mouse
  disappearance of the CmP (image intensity in region of interest): significantly slower
liver; NASH model mouse group (methionine-choline deficient diet), from 1 week (MCD1), versus normal mouse
  redox metabolic rate (disappearing rate) in the liver: significant decrease
liver; NASH model mouse, epigastrium DNP-MRI images, FIG. 3
  time after administration at which the CmP radical still remained: 13 min
liver; normal mice (control), epigastrium DNP-MRI images, FIG. 3
  time after administration at which the CmP radical had mostly disappeared: 5.5 min
[1]
  reaction with a cytoplasmic component or a blood component: minimally reacts
  redox metabolism by a homogenate solution of the liver: redox metabolized
[2]
  redox metabolism by a homogenate solution of the liver: metabolism is stopped
